Laboratory results taken from US20230066946A1, “1,5-DIPHENYLPYRAZOLYL-3-OXYALKYL ACIDS AND 1-PHENYL-5-THIENYLPYRAZOLYL-3-OXYALKYL ACIDS AND THE USE THEREOF FOR CONTROL OF UNWANTED PLANT GROWTH” (Bayer Aktiengesellschaft, priority 2019, published 2023).

How the values were obtained:
MATIN [1] = assay: Post-emergence herbicidal action against MATIN; assay type: in vivo, Matricaria inodora; details: visual rating about 3 weeks after treatment
Procedure, shortened: (§1)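 Weeds grown in sandy loam under greenhouse conditions were sprayed at the one-leaf stage, 2-3 weeks after sowing. Compounds were applied as WP or EC formulations in water with 0.5% additive at 600 L/ha, at 1280 or 320 g/ha. Activity was rated visually about 3 weeks later against untreated controls (0-100%).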

HORMU = assay: Post-emergence herbicidal action against HORMU; assay type: in vivo, Hordeum murinum; details: 320 g/ha, visual rating about 3 weeks after treatment
Description: (§2) [table] Seeds of mono- and dicotyledonous weed plants are placed in plastic pots in sandy loam soil (twin sowing with one species each of mono- or dicotyledonous weed plants per pot), covered with soil and cultivated in a greenhouse under controlled growth conditions. 2 to 3 weeks after sowing, the test plants are treated at the one-leaf stage. The compounds of the invention, formulated in the form of wettable powders (WP) or as emulsion concentrates (EC), are applied to the green parts of the plants as aqueous suspension or emulsion with addition of 0.5% additive at a water application rate equivalent to 600 litres per hectare. After the test plants have been kept in the greenhouse under optimum growth conditions for about 3 weeks, the activity of the preparations is rated visually in comparison to untreated controls. For example, 100% activity=the plants have died, 0% activity=like control plants. Tables 5.1-5.16 below show the effects of selected compounds of the general formula (I) according to Tables 1 to 3 on various harmful plants at an application rate corresponding to 1280 or 320 g/ha, which have been obtained by the aforementioned experimental method.

VERPE [2] = assay: Post-emergence herbicidal action against VERPE; assay type: in vivo, Veronica persica; details: 320 g/ha, visual rating about 3 weeks after treatment
Procedure, shortened: as §1

POLCO [3] = assay: Post-emergence herbicidal action against POLCO; assay type: in vivo, Polygonum convolvulus; details: 320 g/ha, visual rating about 3 weeks after treatment
Description: as §2

VIOTR [4] = assay: Post-emergence herbicidal action against VIOTR; assay type: in vivo, Viola tricolor; details: 320 g/ha, visual rating about 3 weeks after treatment
Procedure, shortened: as §1

PHBPU = assay: Post-emergence herbicidal action against PHBPU; assay type: in vivo, Pharbitis purpurea; details: 320 g/ha, visual rating about 3 weeks after treatment
Procedure, shortened: as §1

POLCO [5] = assay: Pre-emergence herbicidal action against POLCO; assay type: in vivo, Polygonum convolvulus; details: 320 g/ha, scored visually after about 3 weeks vs untreated controls
Description: (§3) Seeds of mono- and dicotyledonous weed plants are placed in plastic pots in sandy loam soil (doubly sown with one species each of mono- or dicotyledonous weed plants per pot) and covered with soil. The compounds of the invention, formulated in the form of wettable powders (WP) or as emulsion concentrates (EC), are then applied onto the surface of the covering soil as aqueous suspension or emulsion with addition of 0.5% additive at a water application rate equivalent to 600 litres per hectare. After the treatment, the pots are placed in a greenhouse and kept under good growth conditions for the trial plants. After about 3 weeks, the effect of the preparations is scored visually in comparison with untreated controls as percentages. For example, 100% activity=the plants have died, 0% activity=like control plants. [table] Tables 4.1-4.15 below show the effects of selected compounds of the general formula (I) according to Tables 1 to 3 on various harmful plants at an application rate corresponding to 1280 or 320 g/ha, which have been obtained by the aforementioned experimental method.

STEME [6] = assay: Pre-emergence herbicidal action against STEME; assay type: in vivo, Stellaria media; details: scored visually after about 3 weeks vs untreated controls
Procedure, shortened: (§4)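 Visual percent activity (100% = plants dead, 0% = like control) scored about 3 weeks after pre-emergence treatment in greenhouse. Compounds as WP or EC, applied to covering soil surface with 0.5% additive, 600 L/ha water, at 1280 or 320 g/ha.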

ECHCG [7] = assay: Post-emergence herbicidal action against ECHCG; assay type: in vivo, Echinochloa crus-galli; details: 1280 g/ha, post-emergence at one-leaf stage, rated visually after about 3 weeks vs untreated controls
Procedure, shortened: as §1

AMARE [8] = assay: Pre-emergence herbicidal action against AMARE; assay type: in vivo, Amaranthus retroflexus; details: scored visually after about 3 weeks vs untreated controls; for Pre-emergence action at 320 g/ha against AMARE in %: 100% = plants have died, 0% = like control plants; for Pre-emergence action against AMARE in %: 1280 g/ha
Procedure, shortened: as §4

VERPE [9] = assay: Pre-emergence herbicidal action against VERPE; assay type: in vivo, Veronica persica; details: 320 g/ha, scored visually after about 3 weeks vs untreated controls
Procedure, shortened: as §4

STEME [10] = assay: Post-emergence herbicidal action against STEME; assay type: in vivo, Stellaria media; details: visual rating about 3 weeks after treatment
Procedure, shortened: as §1

ECHCG [11] = assay: Pre-emergence herbicidal action against ECHCG; assay type: in vivo, Echinochloa crus-galli; details: scored visually after about 3 weeks vs untreated controls, 100% = plants have died, 0% = like control plants
Procedure, shortened: as §4

SETVI [12] = assay: Post-emergence herbicidal action against SETVI; assay type: in vivo, Setaria viridis; details: 1280 g/ha, post-emergence at one-leaf stage, rated visually after about 3 weeks vs untreated controls
Procedure, shortened: as §1

AMARE [13] = assay: Post-emergence herbicidal action against AMARE; assay type: in vivo, Amaranthus retroflexus; details: visual rating about 3 weeks after treatment
Procedure, shortened: as §1

SETVI [14] = assay: Pre-emergence herbicidal action against SETVI; assay type: in vivo, Setaria viridis; details: 1280 g/ha, scored visually after about 3 weeks vs untreated controls
Procedure, shortened: as §4

VIOTR [15] = assay: Pre-emergence herbicidal action against VIOTR; assay type: in vivo, Viola tricolor; details: 1280 g/ha, scored visually after about 3 weeks vs untreated controls
Description: as §3

MATIN [16] = assay: Pre-emergence herbicidal action against MATIN; assay type: in vivo, Matricaria inodora; details: 1280 g/ha, scored visually after about 3 weeks vs untreated controls
Description: as §3

ALOMY = assay: Post-emergence herbicidal action against ALOMY; assay type: in vivo, Alopecurus myosuroides; details: 1280 g/ha, post-emergence at one-leaf stage, rated visually after about 3 weeks vs untreated controls
Description: as §2

Structure (SMILES)	Post-emergence action against MATIN in % (MATIN [1]; 320 g/ha)	Post-emergence action against HORMU in % (HORMU)	Post-emergence action against VERPE in % (VERPE [2])	Post-emergence action against POLCO in % (POLCO [3])	Post-emergence action against VIOTR in % (VIOTR [4])	Post-emergence action against PHBPU in % (PHBPU)	Pre-emergence action against POLCO in % (POLCO [5])	Pre-emergence action against STEME in % (STEME [6]; 320 g/ha)	Post-emergence action against MATIN in % (MATIN [1]; 1280 g/ha)	Post-emergence action against ECHCG in % (ECHCG [7])	Pre-emergence action at 320 g/ha against AMARE in % (AMARE [8])	Pre-emergence action against AMARE in % (AMARE [8])	Post-emergence action against STEME in % (STEME [10]; 320 g/ha)	Post-emergence action against STEME in % (STEME [10]; 1280 g/ha)	Pre-emergence action at 1280 g/ha against ECHCG in % (ECHCG [11])	Pre-emergence action against STEME in % (STEME [6]; 1280 g/ha)	Post-emergence action against AMARE in % (AMARE [13]; 320 g/ha)	Post-emergence action against AMARE in % (AMARE [13]; 1280 g/ha)	Pre-emergence action against SETVI in % (SETVI [14])	Pre-emergence action against VIOTR in % (VIOTR [15])	further results
CCOC(=O)COc1nn(-c2ccccc2F)c(-c2ccccc2)c1[N+](=O)[O-] [I-075]	80%	80%	80%	80%	100%	90%	80%	80%													
O=C(O)COc1nn(-c2c(F)cccc2F)c(-c2ccc(F)c(F)c2)c1Br [I-137]	80%	80%	90%	90%	80%	90%	100%	90%	90%	100%	90%	100%	90%	100%	100%	100%	80%	90%	100%		Pre-emergence action against VERPE in % (VERPE [9]): 90%; Post-emergence action against SETVI in % (SETVI [12]): 90%
C#Cc1c(OCC(=O)OC)nn(-c2ccccc2F)c1-c1ccccc1 [I-063]					90%				80%			80%				80%			100%	100%	Post-emergence action against SETVI in % (SETVI [12]): 80%
C#Cc1c(OCC(=O)OC)nn(-c2ccccc2)c1-c1ccc(F)cc1 [I-066]	80%				80%	90%			80%			100%								90%	
COC(=O)[C@H](C)Oc1nn(-c2ccccc2)c(-c2ccc(F)cc2)c1C#N [I-141]	80%	80%			90%			80%	90%	100%	90%	100%	90%	90%	100%	90%	90%	90%	100%		
COC(=O)COc1nn(-c2cccc(Cl)c2)c(-c2cccc(F)c2)c1C#N [I-046]			80%		80%	80%			80%		90%	90%	80%	80%				80%		90%	Pre-emergence action against MATIN in % (MATIN [16]): 90%; Post-emergence action against ALOMY in % (ALOMY): 80%
COC(=O)COc1nn(-c2ccccc2F)c(-c2ccc(F)c(F)c2)c1Br [I-055]		80%	80%	80%	100%	80%	90%	100%	100%	100%	100%	100%	80%	100%	100%	100%	90%	90%	100%		Pre-emergence action against VERPE in % (VERPE [9]): 90%
